How the values were obtained:
human Y2 receptor [1] = target: T1, human Y2 receptor (Homo sapiens, UniProt P49146); assay: Inhibition of forskolin-stimulated cAMP accumulation (radioimmunoassay), stably transfected 293 cells; assay type: cell-based; parameters: expressed in transfected cells; settings: maximum inhibition of cAMP accumulation relative to that produced by human NPY
T1 sequence (P49146 1-381): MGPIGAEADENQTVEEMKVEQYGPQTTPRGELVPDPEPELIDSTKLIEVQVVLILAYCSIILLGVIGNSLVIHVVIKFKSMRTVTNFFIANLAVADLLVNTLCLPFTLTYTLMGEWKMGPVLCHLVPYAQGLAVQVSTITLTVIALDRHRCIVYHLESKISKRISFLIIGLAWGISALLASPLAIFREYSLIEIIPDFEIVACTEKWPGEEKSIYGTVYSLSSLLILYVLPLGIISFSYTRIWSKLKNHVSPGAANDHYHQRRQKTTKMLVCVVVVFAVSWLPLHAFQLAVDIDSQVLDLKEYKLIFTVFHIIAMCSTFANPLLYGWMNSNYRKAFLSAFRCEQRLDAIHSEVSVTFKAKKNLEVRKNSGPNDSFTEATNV

human Y2 receptor [2] = target: T1, human Y2 receptor; settings: stably transfected NIH-3T3 cells
PYY-preferring receptor = settings: rat small intestine; cited from earlier work
human Y2 receptor [3] = target: T1, human Y2 receptor; assay: 125I-PYY binding to membranes from 293 stable clone (293-hY2-10); parameters: expressed in transfected cells; settings: 100 μM Gpp(NH)p, 0.08 nM 125I-PYY, 293 cell membranes
rat Y2a receptor = target: T2, rat Y2a receptor (Rattus norvegicus, UniProt Q9ERC0); assay: Competitive displacement of 125I-PYY, membranes of COS-7 cells transiently expressing rat Y2a; assay type: binding; settings: 100 μM Gpp(NH)p, rat Y2a in COS-7
T2 construct: expressed in transfected cells; host or cells: COS-7 (transient); 4.0 kb EcoRI genomic fragment of rs5a in EXJ.RH
T2 sequence (Q9ERC0 1-381): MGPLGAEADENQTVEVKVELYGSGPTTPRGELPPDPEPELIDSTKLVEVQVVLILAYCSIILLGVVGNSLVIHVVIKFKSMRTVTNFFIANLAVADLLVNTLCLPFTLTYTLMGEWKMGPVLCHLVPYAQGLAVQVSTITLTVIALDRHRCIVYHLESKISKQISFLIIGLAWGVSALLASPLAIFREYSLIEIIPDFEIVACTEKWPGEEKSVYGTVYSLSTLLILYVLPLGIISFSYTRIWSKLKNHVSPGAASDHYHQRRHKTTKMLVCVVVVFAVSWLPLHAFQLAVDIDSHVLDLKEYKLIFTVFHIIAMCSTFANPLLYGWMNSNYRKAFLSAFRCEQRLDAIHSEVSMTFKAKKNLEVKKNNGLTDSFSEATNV
Procedure: Binding data were generated from competitive displacement assays in the absence (●) or presence (∘) of 100 μM Gpp(NH)p. The maximum specific binding detected under control conditions (in the absence of Gpp(NH)p) was used to normalize the data. […] B) Rat Y2a receptor transiently expressed in COS-7 cells.
(§1) Membranes were harvested from COS-7 cells 48 hours after transfection and from SK-N-Be(2) seven days after splitting.
(§2) Incubations were terminated by filtration over Whatman® GF/C filters (pre-coated with 0.5% polyethyleneimine and air-dried before use). […] Specific binding in time course and competition studies was typically 80%; most non-specific binding was associated with the filter.
The DNA corresponding to the rat Y2a homolog was transiently expressed in COS-7 cells for membrane binding studies.

[4] = target: T3, CG-13 receptors (human Y2 receptor) (Homo sapiens, UniProt P49146); assay: Competitive displacement of 125I-PYY, membranes of COS-7 cells transiently expressing CG-13 (human Y2); assay type: binding; settings: 100 μM Gpp(NH)p, human Y2 in COS-7
T3 construct: expressed in transfected cells; host or cells: COS-7 (transient, DEAE-dextran)
T3 sequence (P49146 1-381): T1 sequence (P49146 1-381)
Procedure: Binding data were generated from competitive displacement assays in the absence (●) or presence (∘) of 100 μM Gpp(NH)p. The maximum specific binding detected under control conditions (in the absence of Gpp(NH)p) was used to normalize the data. A) Human Y2 receptor transiently expressed in COS-7 cells. B) Rat Y2a receptor transiently expressed in COS-7 cells.
as §1, §2

human Y2 receptor [5] = target: T1, human Y2 receptor; assay: 125I-PYY binding to membranes from stably transfected NIH-3T3 cells (N-hY2-5); parameters: expressed in transfected cells; settings: 100 μM Gpp(NH)p, 0.08 nM 125I-PYY, NIH-3T3 cell membranes
Source text: Two positive clones were identified and isolated for further study (293 clone #10 and NIH-3T3 clone #5). […] The data serve to emphasize that the receptor/G protein interactions for a given receptor clone can vary depending upon the resident G proteins in the host cell line (93). Additional factors such as receptor density and receptor reserve can also play a role (92).

human Y2 receptor [6] = target: T1, human Y2 receptor; assay: Intracellular calcium mobilization (Fura-2/AM), stably transfected 293 cells; settings: pretreatment 100 ng/ml for 24 hours

## Neuropeptide Y [NPY, human]
Human Y2 receptor [1]
  Function Emax: 100%
Human Y2 receptor [2]
  decrease of forskolin-stimulated cAMP accumulation: 50%

## PYY: PYY, species not stated (Table 2, b7) [peptide YY]
PYY-preferring receptor
  higher affinity for PYY than for NPY: 5-10 fold

## Nc1nc2c(ncn2[C@@H]2O[C@H](COP(=O)(O)OP(=O)(O)NP(=O)(O)O)[C@@H](O)[C@H]2O)c(=O)[nH]1 [Gpp(NH)p]
Human Y2 receptor [3]
  reduction of specific binding of 125I-PYY: 32%
Rat Y2a receptor
  decrease of specific binding of 125I-PYY: 23%
[4]
  decrease of specific binding of 125I-PYY: 4%
Human Y2 receptor [5]
  reduction of specific binding of 125I-PYY: 6%

## pertussis toxin
Human Y2 receptor [6]
  decrease of the response to 300 nM human PYY: 93%

From US6420532B1, “Method of obtaining compositions comprising Y2 specific compounds” (Synaptic Pharmaceutical Corporation, priority 1994, dated 2002)
